Source: US11234982B2, “Methods for treating ocular surface pain” (NOVARTIS AG, priority 2019, dated 2022)
“Also recorded” adds a separate entry of the source.

How the values were obtained:
[1] = tested on: patients undergoing photorefractive keratectomy (PRK) surgery; assay: PRK study: adverse events; type: in vivo, human
Description: The study was a proof of concept, double-masked, randomized, vehicle-controlled study of compound I administered as eye drops in addition to standard of care treatment in patients after PRK surgery. PRK surgery was performed as an outpatient procedure under topical anesthesia with removal of the corneal epithelium to expose the stroma for the laser ablation. Compound I dosing was as single eye drop of 2.5% (25 mg/ml, 0.925 mg/drop), administered four times daily (every six hours) in one eye from immediate post-op (time 0) to last dose at 72 hours.
Safety assessments consisted of collecting all AEs, SAEs, with their severity and relationship to study drug. Only signs and symptoms greater than the listed ranges of either severity or duration were reported as AEs.
Adverse events and serious adverse events included an assessment of both systemic and ocular assessments. Systemic safety assessments included regular assessments of height and weight, vital signs, reporting medication errors including misuse/abuse, pregnancy reporting and early phase safety monitoring. The misuse/abuse, pregnancy reporting and early phase safety monitoring were not assessed for the study. Ocular safety assessments included the following: • Best-corrected visual acuity (BCVA) and uncorrected visual acuity (UCVA): Was measured at each visit using an ETDRS visual acuity chart at 4 meters (13 feet) or 1 meter (for patients that cannot read the 4 meter chart). The BCVA scoring was done based on the number of correctly read letters plus 30. If visual acuity was so poor that the patient could not read any of the largest letters at 1 meter, count fingers and hand movement vision and light perception was tested. • Intraocular Pressure (TOP): IOP measurements were conducted with applanation tonometry or Tonopen. • Dilated fundus exam: The dilated fundus examination included ophthalmoscopic assessments of the vitreous, retina/macula/choroid, and optic nerve. Evaluations for retinal tear/detachment, retinal hemorrhage, vitreous hemorrhage density, vitreous haze grading and abnormal findings were done and scored according to grading criteria. • Ocular hyperemia: Conjunctival redness of the bulbar conjunctiva in each eye at the slit lamp according to the McMonnies redness scale was graded. […] By adjusting the calibrated slit beam width and height, the maximum horizontal (wound width) and vertical dimensions (wound height) of the surgical epithelial wound was estimated. The evaluation was performed until wound closure and report of wound size as 0 horizontal and 0 vertical dimensions. • Slit-lamp biomicroscopy: Ocular signs (eyelids/conjunctiva, cornea, lens, and iris/anterior chamber) was assessed in both eyes by slit lamp biomicroscopy according to the grading criteria. • Blink rate: A blink was defined as a bilateral paroxysmal closure of the eyelids (duration<1 second) in the absence of a provoking external stimulus. Each blink assessment lasted for 2 min (or as close to 2 minutes as possible with minimum time 1 minute) and the obtained blink rate was averaged to calculate blink rate in blinks/min. • Tear production (Schirmer's test without anesthesia): The test was performed without anesthetic in both eyes simultaneously. Tear secretion was measured in millimeters of the length of strip wetted by tears. […] The strip was wetted with 1 drop of sterile saline and flicked to remove excess saline. The patient blinked several times to ensure dispersion of the dye throughout the tear film prior to grading on a scale of 0-3 (0=Normal, No staining; 1=Mild, Superficial stippling micropunctate staining; 2=Moderate, Macropunctate staining with some coalescent areas and 3=Severe, Numerous coalescent macropunctate areas and/or patches) for each of 5 zones (central plus 4 quadrants).

[2] = tested on: cornea; assay: Esthesiometry assessment (Part 3): corneal sensitivity, anesthetic effect; type: in vivo, human; conditions: for Anesthetic effect on the cornea (esthesiometry): single eye drop: tetracaine 0.5%, diclofenac 0.1%
Description: Part 3 was an esthesiometry assessment to evaluate the anesthetic properties of compound I. Part 3 of the study had four arms, with compound I, vehicle, tetracaine (0.5% ophthalmic solution, used as a positive control) and diclofenac sodium (0.1% ophthalmic solution, used as the active NSAID comparator). Ocular anesthetic was selected because of its established anesthetic effect; however it is not the standard of care due to its negative effect on wound healing. NSAID is the current standard of care for corneal pain after PRK with minimal anesthetic but significant pain control properties. Vehicle eye drops were used as a negative control to enable better determination of the potential anesthetic effect. Twelve healthy subjects, who met the eligibility criteria, were randomized to receive a single eye drop of 4 study treatments, each during 1 of 4 different study days (Days 1, 4, 7 and 10). Each subject was randomized to receive the study treatment according to one of the following four sequences: • Sequence 1: Anesthetic, NSAID, compound I 2.5%, Vehicle • Sequence 2: NSAID, Vehicle, Anesthetic, compound I 2.5% • Sequence 3: Vehicle, compound I 2.5%, NSAID, Anesthetic • Sequence 4: compound I 2.5%, Anesthetic, Vehicle, NSAID
Inclusion Criteria: • Written informed consent was obtained before any assessment was performed. • Healthy male and female subjects aged 18 to 50 years (inclusive), and in good health as determined by past medical history, physical examination, vital signs, ECG, and laboratory tests at Screening. • At Screening, and Baseline, vital signs (systolic and diastolic blood pressure (BP) and pulse rate) were assessed in the sitting position after the subject had rested for at least 3 minutes and again after 3 minutes in the standing position. […] BMI=Body weight (kg)/[Height (m)]^2 • Subjects who were able to communicate well with the Investigator, to understand and comply with the requirements of the study. • For Part 3, subjects Baseline levels of eye sensitivity were to be in the range of 50 to 60 mm (inclusive) as measured by the Cochet-Bonnet esthesiometer.
The first-in-human study further evaluated potential anesthetic effect of topical ocular 2.5% compound I by esthesiometry testing, i.e. measurement of the filament length (cm) when the threshold of cornea touch is perceived.

## CC(C)c1nc2cc(O)ccc2c(=O)n1-c1ccc(C#N)cc1 [Compound I, 4-(7-hydroxy-2-isopropyl-4-oxo-4H-quinazolin-3-yl)-benzonitrile]
[1]; Compound I 2.5%
  Non-ocular AE Arthralgia: Procedure related: no
  Non-ocular AE Arthralgia: Severity: mild
  Non-ocular AE Headache: Procedure related: no
  Non-ocular AE Headache: Severity: mild
  Non-ocular AE Nasopharyngitis: Procedure related: no
  Non-ocular AE Nasopharyngitis: Severity: mild, mild
  Non-ocular AE Oropharyngeal Pain: Procedure related: no
  Non-ocular AE Oropharyngeal Pain: Severity: mild
  Non-ocular AE Pyrexia: Procedure related: no
  Non-ocular AE Pyrexia: Severity: moderate
  Non-ocular AE Sinus Congestion: Procedure related: no
  Non-ocular AE Sinus Congestion: Severity: moderate
  Non-ocular AE Sinusitis: Procedure related: no
  Non-ocular AE Sinusitis: Severity: moderate
  Non-ocular AE Vomiting: Procedure related: no
  Non-ocular AE Vomiting: Severity: moderate
  Ocular AE Corneal Opacity: Procedure related: yes
  Ocular AE Corneal Opacity: Severity: mild
  Ocular AE Posterior Vitreous Detachment: Procedure related: no
  Ocular AE Posterior Vitreous Detachment: Severity: mild
  Ocular AE Punctate Keratitis: Procedure related: yes
  Ocular AE Punctate Keratitis: Severity: mild
[1]; Compound I 2.5%, N = 40
  Non-ocular AE Arthralgia: patients: 1 (2.5) n (%)
  Non-ocular AE Headache: patients: 1 (2.5) n (%)
  Non-ocular AE Nasopharyngitis: patients: 2 (5.0) n (%)
  Non-ocular AE Oropharyngeal Pain: patients: 1 (2.5) n (%)
  Non-ocular AE Pyrexia: patients: 1 (2.5) n (%)
  Non-ocular AE Sinus Congestion: patients: 1 (2.5) n (%)
  Non-ocular AE Sinusitis: patients: 1 (2.5) n (%)
  Non-ocular AE Tinnitus: patients: 0 n (%)
  Non-ocular AE Vomiting: patients: 1 (2.5) n (%)
  Number of AEs: 12
  Number of drug-related AEs: 0
  Number of mild severity AEs: 8
  Number of moderate severity AEs: 4
  Number of non-ocular AEs: 9
  Number of ocular AEs: 3
  Number of procedure-related AEs: 2
  Number of severe AEs: 0
  Ocular AE Corneal Infiltrate: patients: 0 n (%)
  Ocular AE Corneal Opacity: patients: 1 (2.5) n (%)
  Ocular AE Posterior Vitreous Detachment: patients: 1 (2.5) n (%)
  Ocular AE Punctate Keratitis: patients: 1 (2.5) n (%)
  Patients with at least one AE: 8 (20) n (%)
  Patients with at least one non-ocular AE: 6 (15) n (%)
  Patients with at least one ocular AE: 3 (7.5) n (%)
[1]; PRK study
  Differences in safety between compound I and Vehicle: no observed clinically meaningful differences in safety
[1]; PRK study, 2.5% four times daily for 72 hours
  Deaths, SAEs, discontinuations due to AEs: no deaths or SAEs or discontinuation of the drug or discontinuation from the study due to AEs; also recorded: no deaths, or serious or severe AEs, treatment discontinuations or study discontinuations
[2]; Compound I 2.5% (N=11) vs Tetracaine 0.5% (N=12) at 2.5 and 10 minutes post-dose
  Corneal sensitivity, least squares means, Test vs Ref: vs Tetracaine 0.5%: statistical and clinical significance were observed
[2]; compound I 2.5%, time points up to 30 minutes post-dose
  Difference in corneal sensitivity vs vehicle: No difference
[2]; compound I 2.5%
  Anesthetic effect on the cornea (esthesiometry): no anesthetic effect at any time point
[2]; compound I 2.5%, listed as compound I
  Anesthetic effect on the cornea (esthesiometry): lack of anesthetic effect
